Target: T1, human TMEM16A (TMEM16Aabc variant) (Homo sapiens, UniProt Q5XXA6, DEL476-501)
T1 sequence (Q5XXA6 with tags, fused parts or gaps isoform Q5XXA6-5 DEL539-564): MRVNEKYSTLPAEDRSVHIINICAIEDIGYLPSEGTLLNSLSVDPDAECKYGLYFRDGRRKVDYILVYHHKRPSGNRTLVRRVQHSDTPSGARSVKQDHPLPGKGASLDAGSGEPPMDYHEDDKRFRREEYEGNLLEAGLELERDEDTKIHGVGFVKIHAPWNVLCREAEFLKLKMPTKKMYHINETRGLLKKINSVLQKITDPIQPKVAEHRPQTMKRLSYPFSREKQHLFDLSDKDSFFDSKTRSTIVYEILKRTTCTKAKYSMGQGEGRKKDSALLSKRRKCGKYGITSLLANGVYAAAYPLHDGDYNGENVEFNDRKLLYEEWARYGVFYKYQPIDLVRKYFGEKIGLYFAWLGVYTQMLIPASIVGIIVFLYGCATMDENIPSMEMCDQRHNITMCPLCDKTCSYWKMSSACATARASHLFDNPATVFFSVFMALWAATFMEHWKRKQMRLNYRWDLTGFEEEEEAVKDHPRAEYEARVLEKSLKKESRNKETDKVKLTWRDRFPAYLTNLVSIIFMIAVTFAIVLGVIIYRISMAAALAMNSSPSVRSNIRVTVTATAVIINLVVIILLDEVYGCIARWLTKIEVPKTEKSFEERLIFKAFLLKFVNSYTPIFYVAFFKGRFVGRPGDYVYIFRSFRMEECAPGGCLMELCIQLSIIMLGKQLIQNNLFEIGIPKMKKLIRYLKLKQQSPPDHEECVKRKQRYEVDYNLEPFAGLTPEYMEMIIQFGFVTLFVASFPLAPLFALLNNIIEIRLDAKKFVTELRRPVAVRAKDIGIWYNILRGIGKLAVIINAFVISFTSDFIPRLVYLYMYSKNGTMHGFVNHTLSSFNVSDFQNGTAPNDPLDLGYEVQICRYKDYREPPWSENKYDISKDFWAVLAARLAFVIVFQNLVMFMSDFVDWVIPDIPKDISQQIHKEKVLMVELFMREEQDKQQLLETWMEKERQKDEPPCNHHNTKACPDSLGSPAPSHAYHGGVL
Test: Automated whole-cell patch clamp (Qpatch) TMEM16A potentiator assay in recombinant cells
Type: cell-based
Details: FRT cells stably expressing human TMEM16A, intracellular calcium at EC20; for % Potentiation @ 3.33 μM Avg: 3.33 μM solution of test compound, percentage increase of baseline TMEM16A current, peak current at +70 mV; for EC50: calculated from cumulative concentration response curve, whole-cell patch clamp
Protocol: Automated Whole-Cell Patch Clamp Assay to Detect TMEM16A Activity in Recombinant Cells
Cell Culture and Preparation
Fisher rat thyroid (FRT) cells stably expressing human TMEM16A (TMEM16Aabc variant; Dr Luis Galietta, Insituto Giannina, Italy) were cultured in T-75 flasks in Hams F-12 media with Coon's modification (Sigma) supplemented with 10% (v/v) foetal bovine serum, penicillin-streptomycin (10,000 U/mL/10000 μg/mL), G-418 (750 μg/mL), L-glutamine (2 mM) and sodium bicarbonate solution (7.5% v/v). At ˜90% confluence cells were harvested for experiments by detachment with a 2:1 (v/v) mixture of Detachin (BMS Biotechnology) and 0.25% (w/v) trypsin-EDTA. Cells were diluted to a density of 3.5-4.5×10^6 cells/mL with media consisting of CHO-S-SFM II (Sigma), 25 mM HEPES (Sigma) and Soy bean trypsin inhibitor (Sigma).
Whole-Cell Patch Clamp Recording
FRT-TMEM16A cells were whole-cell patch clamped using an automated planar patch clamp system (Qpatch, Sophion). Briefly, once high resistance (GOhm) seals were established between the cells and the planar recording array the patch was ruptured using suction pulses to establish the whole-cell recording configuration of the patch clamp technique. The assay employed the following solutions (all reagents Sigma):
Intracellular solution (mM): N-methyl-D-glucamine 130, CaCl2 18.2, MgCl2 1, HEPES 10, EGTA 10, BAPTA 20, Mg-ATP 2, pH 7.25, 325 mOsm with sucrose.
Extracellular solution (mM): N-methyl-D-glucamine 130, CaCl2 2, MgCl2 1, HEPES 10, pH 7.3, 320 mOsm with sucrose.
The intracellular solution buffers intracellular calcium at levels required to give ˜20% activation of the maximal TMEM16A mediated current (EC20 for calcium ions). Cells were voltage clamped at a holding potential of −70 mV and a combined voltage step (to +70 mV)/ramp (−90 my to +90 mV) was applied at 0.05 Hz. After a period of current stabilisation test compounds, solubilised in 100% (v/v) DMSO and subsequently diluted into extracellular solution, were applied to generate a cumulative concentration response curve. Each concentration of test compound was incubated for 5 minutes before addition of the next concentration. After the final concentration was tested a supramaximal concentration of either a known active positive modulator or the TMEM16A inhibitor, CaCCinhA01 (Del La Fuente et al, 2008) was added to define the upper and lower limits of the assay.
Compound activity was quantified by measuring the increase in current upon compound addition and expressing this as a percentage increase of baseline TMEM16A current level. Percentage increases in current were determined for each concentration and the data plotted as a function of concentration using either the Qpatch software or Graphpad Prism v6.05 providing the concentration which gave 50% of its maximal effect (EC50) and maximum efficacy (percentage of baseline increase).
In FIG. 1, IBL equals baseline current, I[#1] equals the peak current during test compound concentration 1 incubation period and so on.
Peak TMEM16A current at +70 mV was plotted as a function of time over the assay period. Baseline current (IBL) was measured after a period of stabilisation. The increase in current for each compound addition was determined by taking the peak current during the incubation period and subtracting the current from the previous recording period and then expressing this as a percentage of the baseline current. For test compound concentration 1 in FIG. 1 this is:
For each additional concentration tested the increase in current was determined by subtracting the current from the previous incubation period and normalising the baseline value—for test concentration 2 in FIG. 1 this is:
The values for each test concentration were plotted as a cumulative function of concentration e.g. for test concentration two this would be the sum of the peak changes measured during concentration one plus concentration two.

% Potentiation @ 3.33 μM Avg [%]	EC50 [nM]	Structure (SMILES)
157.3	338	O=C(CC12CC3CC(CC(C3)C1)C2)Nc1ccc2[nH]c(CC3CCCCC3)nc2c1 [Example 1, 2-(1-Adamantyl)-N-[2-(cyclohexylmethyl)-1H-benzimidazol-5-yl]acetamide]
100.5	1100	O=C(CC12CC3CC(CC(C3)C1)C2)Nc1ccc2[nH]c(CC3CCCCO3)nc2c1 (stereo not shown) [Example 1.1, 2-(1-Adamantyl)-N-[2-(tetrahydropyran-2-ylmethyl)-1H-benzimidazol-5-yl]acetamide]
183.6	268	O=C(CC1C2CC3CC(C2)CC1C3)Nc1ccc2[nH]c(Cc3ccccc3)nc2c1 (stereo not shown) [Example 2, 2-(2-Adamantyl)-N-(2-benzyl-1H-benzimidazol-5-yl)acetamide]
149.1	808	O=C(CC1C2CC3CC(C2)CC1C3)Nc1ccc2[nH]c(CCc3ccccc3)nc2c1 (stereo not shown) [Example 2.1, 2-(2-Adamantyl)-N-[2-(2-phenylethyl)-1H-benzimidazol-5-yl]acetamide]
194.2	651	COC(c1ccccc1)c1nc2cc(NC(=O)CC3C4CC5CC(C4)CC3C5)ccc2[nH]1 (stereo not shown) [Example 2.2, 2-(2-Adamantyl)-N-[2-[methoxy(phenyl)methyl]-1H-benzimidazol-5-yl]acetamide]
211.2	263	COc1ccccc1Cc1nc2cc(NC(=O)CC3C4CC5CC(C4)CC3C5)ccc2[nH]1 (stereo not shown) [Example 2.3, 2-(2-Adamantyl)-N-[2-[(2-methoxyphenyl)methyl]-1H-benzimidazol-5-yl]acetamide]
108.2	1640	CN[C@H](c1ccccc1)c1nc2cc(NC(=O)CC3C4CC5CC(C4)CC3C5)ccc2[nH]1 (stereo partly drawn) [Example 3, 2-(2-Adamantyl)-N-[2-[(R)-methylamino(phenyl)methyl]-1H-benzimidazol-5-yl]acetamide]
187.3	732	O=C(CC12CC3CC(CC(C3)C1)C2)Nc1ccc2[nH]c(Cc3cccnc3Cl)nc2c1 [Example 4, 2-(1-Adamantyl)-N-[2-[(2-chloro-3-pyridyl)methyl]-1H-benzimidazol-5-yl]acetamide]
156.9	79	O=C(CC1C2CC3CC(C2)CC1C3)Nc1ccc2[nH]c(Cc3ccccc3O)nc2c1 (stereo not shown) [Example 5, 2-(2-Adamantyl)-N-[2-[(2-hydroxyphenyl)methyl]-1H-benzimidazol-5-yl]acetamide]
165.9	596	O=C(CC1C2CC3CC(C2)CC1C3)Nc1ccc2[nH]c(Cc3ccc(O)cc3)nc2c1 (stereo not shown) [Example 5.1, 2-(2-Adamantyl)-N-[2-[(4-hydroxyphenyl)methyl]-1H-benzimidazol-5-yl]acetamide]
204.2	254	O=C(CC1C2CC3CC(C2)CC1C3)Nc1ccc2[nH]c(Cc3cc(Cl)ccc3O)nc2c1 (stereo not shown) [Example 5.2, 2-(2-Adamantyl)-N-[2-[(5-chloro-2-hydroxy-phenyl)methyl]-1H-benzimidazol-5-yl]acetamide]
246.3	1250	O=C(CC12CC3CC(CC(C3)C1)C2)Nc1ccc2[nH]c(CNC(=O)OCC(F)(F)F)nc2c1 [Example 6, 2,2,2-Trifluoroethyl N-[[5-[[2-(1-adamantyl)acetyl]amino]-1H-benzimidazol-2-yl]methyl]carbamate]
136.5	1580	Cc1noc(C)c1-c1cccc(Cc2nc3ccc(NC(=O)CC45CC6CC(CC(C6)C4)C5)cc3[nH]2)c1 [Example 7, 2-(1-Adamantyl)-N-[2-[[3-(3,5-dimethylisoxazol-4-yl)phenyl]methyl]-3H-benzimidazol-5-yl]acetamide]
129.2	282	CC(C)(C)OC(=O)NCc1nc2cc(NC(=O)CC3C4CC5CC(C4)CC3C5)ccc2[nH]1 (stereo not shown) [Example 8, tert-Butyl N-[[5-[[2-(2-adamantyl)acetyl]amino]-1H-benzimidazol-2-yl]methyl]carbamate]
87.4	841	O=C(CC1C2CC3CC(C2)CC1C3)Nc1ccc2[nH]c(OC3CCOC3)nc2c1 (stereo not shown) [Example 9, 2-(2-Adamantyl)-N-(2-tetrahydrofuran-3-yloxy-1H-benzimidazol-5-yl)acetamide]
67.7	122	O=C(NCC1CCCCCC1)c1ccc2oc(Cc3ccccc3O)nc2c1 [Example 10, N-(Cycloheptylmethyl)-2-[(2-hydroxyphenyl)methyl]-1,3-benzoxazole-5-carboxamide]
122.7	98	Nc1c2ccc(NC(=O)CC34CC5CC(CC(C5)C3)C4)cc2nn1Cc1ccccc1O [Example 11, 2-(1-Adamantyl)-N-[3-amino-2-[(2-hydroxyphenyl)methyl]indazol-6-yl]acetamide]
44.6	3340	CC(C)c1nc2cc(NC(=O)CC3CCCCC3)ccc2o1 [Example 12, 2-Cyclohexyl-N-(2-isopropyl-1,3-benzoxazol-5-yl)acetamide]
96.6	198	O=C(NCC1CCCCCC1)c1ccc2cn(Cc3ccccc3O)nc2c1 [Example 13, N-(Cycloheptylmethyl)-2-[(2-hydroxyphenyl)methyl]indazole-6-carboxamide]
59.4	–	O=C(CC12CC3CC(CC(C3)C1)C2)Nc1cc2nc(Cc3ccccc3)[nH]c2cn1 [Example 14, 2-(1-Adamantyl)-N-(2-benzyl-3H-imidazo[4,5-c]pyridin-6-yl)acetamide]
58.6	1060	O=C(NCC1CCCCCC1)c1ccn2cc(Cc3ccccc3)nc2c1 [Example 15, 2-Benzyl-N-(cycloheptylmethyl)imidazo[1,2-a]pyridine-7-carboxamide]
137.3	502	O=C(CC12CC3CC(CC(C3)C1)C2)Nc1ccc2cn(Cc3ccccc3)nc2c1 [Example 16, 2-(1-Adamantyl)-N-(2-benzylindazol-6-yl)acetamide]

— US12552770B2, “Compounds for treating respiratory disease” (TMEM16A Limited, priority 2020, dated 2026)
